ChEMBL document CHEMBL1909046, “DrugMatrix in vitro pharmacology data”
Where a SMILES comes first, the peptide text is derived from it. Bridges are numbered along the chain shown (N, C = ends). [ ]: non-standard residue; d: D form. The star is where a group is joined. Threoninol(2S,3R) = C[C@@H](O)[C@H](CO)N*

Key:
[1] = DRUGMATRIX: beta-Lactamase enzyme inhibition (substrate: Nitrocefin); design: species or system Bacillus cereus; conditions: Not Active = under 50% inhibition at 10 µM
[2] = DRUGMATRIX: Serotonin (5-Hydroxytryptamine) 5-HT3 radioligand binding (ligand: [3H] GR-65630); type: cell membranes, Membrane; conditions: hek293; Not Active = under 50% inhibition at 10 µM
Vasopressin V1a receptor = Vasopressin V1a receptor (Homo sapiens, UniProt P37288); type: cell membranes, Membrane; conditions: hek293; note: in other assays of this panel Not Active means under 50% inhibition at 10 µM
[3] = target: Matrix metalloproteinase-9 (Homo sapiens, UniProt P14780); assay: biochemical; type: cell-based;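 note: inhibition of isolated MMP-9 enzyme activity toward a synthetic peptide substrate, from the DrugMatrix protease screening panel; in other assays of this panel Not Active means under 50% inhibition at 10 µM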
[4] = target: Sodium-dependent noradrenaline transporter (Homo sapiens, UniProt P23975); assay: DRUGMATRIX: Norepinephrine Transporter radioligand binding (ligand: [125I] RTI-55); type: cell membranes, MDCK, Membrane; conditions: Not Active = under 50% inhibition at 10 µM
[5] = DRUGMATRIX: Glutamate, AMPA radioligand binding (ligand: [3H] AMPA); type: cell membranes, Rattus norvegicus, Wistar, Cerebral cortex, Membrane; conditions: Not Active = under 50% inhibition at 10 µM
[6] = target: T1, Type-2 angiotensin II receptor (Homo sapiens, UniProt P50052); type: cell-based; conditions: cho-k1; note: in other assays of this panel Not Active means under 50% inhibition at 10 µM
T1 sequence (P50052 whole entry): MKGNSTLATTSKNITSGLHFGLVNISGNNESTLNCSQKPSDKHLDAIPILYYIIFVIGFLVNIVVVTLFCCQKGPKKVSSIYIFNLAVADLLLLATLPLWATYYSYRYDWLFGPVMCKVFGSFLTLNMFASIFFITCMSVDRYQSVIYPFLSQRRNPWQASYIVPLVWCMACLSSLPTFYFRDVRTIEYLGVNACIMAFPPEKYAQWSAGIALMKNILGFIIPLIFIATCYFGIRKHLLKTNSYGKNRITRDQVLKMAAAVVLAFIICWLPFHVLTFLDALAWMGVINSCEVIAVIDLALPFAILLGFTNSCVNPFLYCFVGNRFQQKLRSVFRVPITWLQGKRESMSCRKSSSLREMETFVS

Sodium-dependent noradrenaline transporter, sequence (P23975 whole entry): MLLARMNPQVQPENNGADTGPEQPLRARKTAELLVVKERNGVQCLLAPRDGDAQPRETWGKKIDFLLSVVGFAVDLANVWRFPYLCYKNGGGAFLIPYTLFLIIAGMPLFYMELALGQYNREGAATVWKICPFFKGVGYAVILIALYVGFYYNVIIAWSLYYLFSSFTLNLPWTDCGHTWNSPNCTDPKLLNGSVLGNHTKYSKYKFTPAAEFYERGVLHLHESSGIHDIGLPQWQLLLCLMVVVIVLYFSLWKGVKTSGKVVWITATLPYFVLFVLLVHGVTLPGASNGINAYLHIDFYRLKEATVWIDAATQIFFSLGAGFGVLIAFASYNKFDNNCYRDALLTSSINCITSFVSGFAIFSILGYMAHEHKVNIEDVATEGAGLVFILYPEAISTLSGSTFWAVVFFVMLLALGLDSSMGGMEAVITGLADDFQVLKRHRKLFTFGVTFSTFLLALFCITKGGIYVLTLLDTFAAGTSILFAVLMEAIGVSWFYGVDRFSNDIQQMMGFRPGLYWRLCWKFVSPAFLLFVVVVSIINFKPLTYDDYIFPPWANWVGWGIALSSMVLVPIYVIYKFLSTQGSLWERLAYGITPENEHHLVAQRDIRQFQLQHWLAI
Matrix metalloproteinase-9, sequence (P14780 whole entry): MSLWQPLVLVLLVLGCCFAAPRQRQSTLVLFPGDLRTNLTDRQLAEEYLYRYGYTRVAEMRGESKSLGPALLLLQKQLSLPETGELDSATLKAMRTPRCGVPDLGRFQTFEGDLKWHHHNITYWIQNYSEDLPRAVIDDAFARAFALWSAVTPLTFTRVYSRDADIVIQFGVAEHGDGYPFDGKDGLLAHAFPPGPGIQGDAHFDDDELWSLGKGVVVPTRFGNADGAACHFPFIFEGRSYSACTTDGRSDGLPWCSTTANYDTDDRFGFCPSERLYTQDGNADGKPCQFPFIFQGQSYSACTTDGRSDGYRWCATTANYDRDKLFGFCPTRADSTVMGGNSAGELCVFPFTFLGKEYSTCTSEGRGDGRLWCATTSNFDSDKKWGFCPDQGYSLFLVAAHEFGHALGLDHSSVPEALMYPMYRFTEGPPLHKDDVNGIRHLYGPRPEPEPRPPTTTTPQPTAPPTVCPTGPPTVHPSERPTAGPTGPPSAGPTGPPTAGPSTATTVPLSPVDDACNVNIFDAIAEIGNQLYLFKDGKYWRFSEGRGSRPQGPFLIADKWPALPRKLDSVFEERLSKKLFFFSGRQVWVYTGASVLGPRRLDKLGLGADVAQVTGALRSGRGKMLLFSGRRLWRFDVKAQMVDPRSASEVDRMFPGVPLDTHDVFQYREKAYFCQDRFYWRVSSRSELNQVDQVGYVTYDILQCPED
Vasopressin V1a receptor, sequence (P37288 whole entry): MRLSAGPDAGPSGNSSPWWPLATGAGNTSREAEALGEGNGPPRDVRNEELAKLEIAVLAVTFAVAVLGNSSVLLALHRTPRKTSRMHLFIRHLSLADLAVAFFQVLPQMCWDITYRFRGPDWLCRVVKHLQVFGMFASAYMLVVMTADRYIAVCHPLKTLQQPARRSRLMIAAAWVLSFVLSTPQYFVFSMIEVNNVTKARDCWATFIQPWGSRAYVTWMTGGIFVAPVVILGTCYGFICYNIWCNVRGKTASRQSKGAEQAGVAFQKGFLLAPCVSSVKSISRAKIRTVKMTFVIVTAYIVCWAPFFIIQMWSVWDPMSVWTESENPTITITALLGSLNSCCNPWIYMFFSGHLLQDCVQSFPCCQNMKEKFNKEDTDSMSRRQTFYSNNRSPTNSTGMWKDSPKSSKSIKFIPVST

SMILES | IC50 [1] | Ki [1] | IC50 [2] | Ki [2] | IC50 (Vasopressin V1a receptor) | IC50 [3] | IC50 ([4]; mdck) | IC50 [5] | Ki [5] | IC50 [6] | IC50 ([4]; read-out: IC50) [nM] | Ki ([4]; read-out: Ki) [nM] | Ki (Vasopressin V1a receptor) | Ki [3] | Ki ([4]; mdck) | Ki [6]
COc1ccccc1C(=O)N1CCC(Cc2ccccc2)CC1 | Not Active | Not Active | Not Active | Not Active | Not Active | Not Active | Not Active | Not Active | Not Active | Not Active |  |  |  |  |  | 
Cc1ccccc1C(=O)N1CCC(Cc2ccccc2)CC1 | Not Active | Not Active | Not Active | Not Active | Not Active | Not Active | Not Active | Not Active | Not Active | Not Active |  |  |  |  |  | 
O=C1CC[C@H](N2C(=O)c3ccccc3C2=O)C(=O)N1 | Not Active | Not Active | Not Active | Not Active | Not Active | Not Active | Not Active | Not Active | Not Active | Not Active |  |  |  |  |  | 
N=C(Nc1ccccc1)Nc1ccccc1 | Not Active | Not Active | Not Active | Not Active | Not Active | Not Active |  | Not Active | Not Active | Not Active | 1150 | 1140 |  |  |  | 
C[C@@H](O)[C@H](CO)NC(=O)[C@@H]1CSSC[C@H](NC(=O)[C@H](N)Cc2ccccc2)C(=O)N[C@@H](Cc2ccccc2)C(=O)N[C@H](Cc2c[nH]c3ccccc23)C(=O)N[C@@H](CCCCN)C(=O)N[C@@H]([C@@H](C)O)C(=O)N1 (H-[dF]CF[dW]KTC-{Threoninol(2S,3R)}; disulfide 2-7) | Not Active | Not Active | Not Active | Not Active | Not Active | Not Active | Not Active | Not Active | Not Active | Not Active |  |  |  |  |  | 
S=C=Nc1cccc2ccccc12 [1-NAPHTHYLISOTHIOCYANATE] | Not Active | Not Active | Not Active | Not Active | Not Active | Not Active | Not Active | Not Active | Not Active | Not Active |  |  |  |  |  | 
C[C@](O)(CS(=O)(=O)c1ccc(F)cc1)C(=O)Nc1ccc(C#N)c(C(F)(F)F)c1 [(R)-BICALUTAMIDE] | Not Active | Not Active | Not Active | Not Active | Not Active | Not Active |  | Not Active | Not Active | Not Active |  |  |  |  |  | 
CCCC(=O)Nc1ccc(OCC(O)CNC(C)C)c(C(C)=O)c1 (centres undefined) [ACEBUTOLOL] | Not Active | Not Active | Not Active | Not Active | Not Active | Not Active | Not Active | Not Active | Not Active | Not Active |  |  |  |  |  | 
CC(=O)Nc1ccc(O)cc1 [ACETAMINOPHEN] | Not Active | Not Active | Not Active | Not Active | Not Active | Not Active | Not Active | Not Active | Not Active | Not Active |  |  |  |  |  | 
COc1cc2c(c3oc(=O)c4c(c13)CCC4=O)[C@@H]1C=CO[C@@H]1O2 [AFLATOXIN] | Not Active | Not Active | Not Active | Not Active | Not Active | Not Active | Not Active | Not Active | Not Active | Not Active |  |  | Not Active | Not Active | Not Active | Not Active
N=C(N)NC(=O)c1nc(Cl)c(N)nc1N [AMILORIDE] | Not Active | Not Active | Not Active | Not Active | Not Active | Not Active | Not Active | Not Active | Not Active | Not Active |  |  |  |  |  | 
Cc1cc(=O)n(-c2ccccc2)n1C [ANTIPYRINE] | Not Active | Not Active | Not Active | Not Active | Not Active | Not Active | Not Active | Not Active | Not Active | Not Active |  |  |  |  |  | 
